Results published in US11253498B2, “Pharmaceutical composition for treatment of bone-related disease” (Nexyon Biotech Co., Ltd., priority 2017, dated 2022).

How the values were obtained:
[1] = test system: preosteoblast cells; test: Osteoblast mineralized nodules, alizarin red staining (Example 1-2); assay type: cell-based, mice; conditions: vs negative control (0 μM); for amount of pigments colored in the nodules (differentiation of preosteoblast cells): alizarin red staining, 21 days, 0 to 50 μM, FIG. 1; for effect on the differentiation into osteoblasts (quantified, absorbance 570 nm): concentration series, FIG. 2 and FIG. 3
Procedure: In order to isolate preosteoblast cells, the calvarium was removed from 1- to 3-day-old mice, and then preosteoblast cells were obtained via a process in which the calvarium was subjected to treatment with 1 mg/ml collagenase and 2 mg/ml dispase.
Here, the medium for differentiation induction was replaced with fresh medium at 2- to 3-day intervals, and differentiation induction was performed for a total of 21 days. In order to identify the differentiation into osteoblasts, alizarin red staining was performed. Differentiation-induced cells were fixed by being incubated with 10% neutral formalin at 4° C. for 20 minutes, and then stained by being incubated with 1.36% alizarin red solution (pH 4.1 to 4.3) for 40 minutes. The results are illustrated in FIG. 1.
The results obtained by performing quantification with tauroursodeoxycholic acid, deoxycholic acid, or taurocholic acid are illustrated in FIG. 3.

[2] = test system: preosteoblast cells; test: Differentiation into osteoblasts, alizarin red S staining, cholesterol sulphate with or without Formula 2 (Example 2-2); assay type: cell-based, mice; conditions: FIG. 8
Procedure: The calvarium was removed from 1- to 3-day-old mice, and then subjected to enzymatic treatment with 1 mg/ml collagenase and 2 mg/ml dispase, to obtain preosteoblast cells. […] Then, differentiation into osteoblasts was induced. Replacement of the medium for differentiation was performed at 2- to 3-day intervals and differentiation was induced for a total of 14 to 21 days. Alizarin red S staining was used to evaluate the differentiation into osteoblasts, thereby quantitatively evaluate the degree of mineralized nodule production. The differentiated cells were fixed in 10% neutral formalin at 4° C. for 20 minutes, and then stained with 1.36% alizarin red solution (pH 4.1 to 4.3) for 40 minutes. The stained pattern was photographed or scanned. […] The degree of differentiation into osteoblasts is illustrated in FIG. 8.

[3] = test system: ovary-extracted mouse model; test: Drug administration in ovary-extracted mouse model, femur micro-CT (Example 2-1); assay type: in vivo, C57BL/6 female mice; conditions: 5 mg/kg oral, once a day, five days a week, 4 weeks; vs OVX group receiving vehicle only; FIG. 7
Text: Twenty-four 8-week-old C57BL/6 female mice were randomly divided into three groups, that is, control group (sham), ovary-extracted group (OVX), and OVX+Formula 2 group obtained by administering the compound of Formula 2 to the ovary-extracted group, each group consisting of 8 mice. All three groups were anesthetized using zoletil and rompun. Then, the OVX and OVX+Formula 2 groups were subjected to ovary extraction, and then sutured. The control group was subjected to ovary exposure, and then sutured without ovarian removal. Osteoporosis was induced for 4 weeks.
Starting from 4 weeks after ovarian extraction, on five days a week and once a day, the control group and the OVX group orally received 200 μl of vehicle (tetrahydrofuran:PEG-400:water=1:6:3 in volume), and the OVX+Formula 2 group orally received 200 μl obtained by mixing 5 mg/kg of compound of Formula 2 with a vehicle.
After oral administration for 4 weeks, all mice were sacrificed and the femur was extracted therefrom. The extracted femur was fixed in 10% neutral formalin. Photographs were taken at 7.1 μm voxel size using Skyscan 1173 micro-CT machine, and then bone density was analyzed by CTAn program. The results are illustrated in FIG. 7.

| Compound | amount of pigments colored in the nodules (differentiation of preosteoblast cells) [1] | effect on the differentiation into osteoblasts (quantified, absorbance 570 nm) [1] | further results |
| --- | --- | --- | --- |
| C[C@H](CCC(=O)NCCS(=O)(=O)O)[C@H]1CC[C@H]2[C@@H]3[C@H](O)C[C@@H]4C[C@H](O)CC[C@]4(C)[C@H]3C[C@H](O)[C@]12C [taurocholic acid] | no effect | no significant difference | – |
| C[C@H](CCC(=O)NCCS(=O)(=O)O)[C@H]1CC[C@H]2[C@@H]3[C@@H](O)C[C@@H]4C[C@H](O)CC[C@]4(C)[C@H]3CC[C@]12C [tauroursodeoxycholic acid] | no effect | no significant difference | – |
| C[C@H](CCC(=O)O)[C@H]1CC[C@H]2[C@@H]3CC[C@@H]4C[C@H](O)CC[C@]4(C)[C@H]3C[C@H](O)[C@]12C [deoxycholic acid] | no effect | – | – |
| CC(C)CCC[C@@H](C)[C@H]1CC[C@H]2[C@@H]3CC=C4C[C@@H](OS(=O)(=O)O)CC[C@]4(C)[C@H]3CC[C@]12C [Formula 1, [(3S,8S,9S,10R,13R,14S,17R)-10,13-dimethyl-17-[(2R)-6-methylheptan-2-yl]-2,3,4,7,8,9,11,12,14,15,16,17-dodecahydro-1H-cyclopenta[a]phenanthren-3-yl] hydrogen sulphate] | – | – | differentiation into osteoblasts ([2]; 0 to 50 μM cholesterol sulphate alone): increases the differentiation into osteoblasts in a dose-dependent manner |
| NS(=O)(=O)Oc1ccc2c3c(c(=O)oc2c1)CCCCC3 [Formula 2, 6-oxo-6,7,8,9,10,11-hexahydrocyclohepta[c]chromen-3-yl sulfamate] | – | – | increase in the volume of trabecular bone [3]: 90%; differentiation into osteoblasts ([2]; 5 μM compound of Formula 2 alone): does not increase; differentiation into osteoblasts ([2]; 5 μM compound of Formula 2 in combination with 0 to 50 μM cholesterol sulphate): further enhances an effect of cholesterol sulphate |
